Assay results: patent publication US9872861B2, “Methods of treatment using selective Bcl-2 inhibitors” (AbbVie Inc., priority 2010, dated 2018)
Like-named read-outs stand apart in the source and are kept apart here. Marks after values point to notes of the source that are not given here.

Tests used:
Bcl-w = biological target: T1, Bcl-w (Homo sapiens, UniProt Q92843); assay: TR FRET competitive binding affinity, Bcl-w; conditions: read-out: Target Affinity TR FRET, Bcl-w
T1 sequence (Q92843 1-193): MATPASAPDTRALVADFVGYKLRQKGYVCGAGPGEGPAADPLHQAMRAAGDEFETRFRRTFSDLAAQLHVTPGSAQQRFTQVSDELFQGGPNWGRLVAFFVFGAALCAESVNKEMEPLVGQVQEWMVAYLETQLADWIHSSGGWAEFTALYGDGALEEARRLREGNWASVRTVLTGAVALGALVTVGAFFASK
Description: (§1) A comparison of the binding affinity for each of the compounds was performed to determine target affinity, as measured by Time-Resolved Fluorescence Resonance Energy Transfer (TR FRET).

[1] = tested on: peripheral blood immune cells and platelets; assay: Peripheral blood lymphocytes and platelets in (NZB×NZW)F1 mice, Cell Dyn hematology analyzer; type: in vivo
H146 cells = assay: Cellular efficacy in Bcl-XL dependent tumor cell line H146; type: cell-based; conditions: Homo sapiens, NCI-H146; 10% HS
RS4;11 cells = assay: Cellular efficacy in Bcl-2 dependent tumor cell line RS4;11; type: cell-based, human; conditions: Homo sapiens, RS4-11; 10% HS
FL5.12-Bcl-XL cells = assay: Cellular efficacy in FL5.12 cells dependent on Bcl-XL; type: cell-based, murine; conditions: Mus musculus, 3% FBS
FL5.12-Bcl-2 cells = assay: Cellular efficacy in FL5.12 cells dependent on Bcl-2; type: cell-based, murine; conditions: Mus musculus, 3% FBS
Mcl-1 = Mcl-1 (Homo sapiens, UniProt Q07820); assay: TR FRET competitive binding affinity, Mcl-1; conditions: read-out: Target Affinity TR FRET, Mcl-1
Description: as §1

Bcl-XL = Bcl-XL (Homo sapiens, UniProt Q07817); assay: TR FRET competitive binding affinity, Bcl-XL; conditions: read-out: Target Affinity TR FRET, Bcl-XL
Description: as §1

[2] = tested on: peripheral blood immune cells; assay: Peripheral blood lymphocytes in C57BL/6 mice, Cell Dyn hematology analyzer; type: in vivo; conditions: for inhibition in vivo at 100 mg/kg: Mus musculus, Lymphocyte
Description: The effect of the Bcl-2 selective/Bcl-XL sparing compounds on peripheral blood immune cells was also evaluated in C57BL/6 mice. Mice were treated four days with individual compounds (100 mg/kg, orally every day) and cell numbers were measured with a Cell Dyn hematology analyzer.

Bcl-2 = Bcl-2 (Homo sapiens, UniProt P10415); assay: TR FRET competitive binding affinity, Bcl-2; conditions: read-out: Target Affinity TR FRET, Bcl-2
Description: as §1

[3] = tested on: spontaneous (NZB×NZW)F1 murine model of lupus; assay: Spontaneous (NZB×NZW)F1 murine model of lupus: proteinuria, survival, lymphopenia; type: in vivo, (NZB×NZW)F1 mice
Excerpt: (See Liu, K. and C. Mohan, What do mouse models teach us about human SLE? Clin Immunol, 2006. 119(2): p. 123-30) This model has been well-characterized with respect to the patho-physiological changes analogous to those of human SLE. […] Renal histopathological changes include severe glomerulonephritis, mesangial and peripheral proliferative changes, capillary membrane thickening, tubular atrophy, and infiltration of lymphocytes and monocytes/macrophages as in the majority of human SLE patients. These changes result in disruption of kidney function as evidenced by severe proteinuria (PU) greater than 300 mg/dL as measured by albumin sticks, followed by mortality as measured by survival. […] (See Gelfand, M. C. and A. D. Steinberg, Therapeutic studies in NZB-W mice. II. Relative efficacy of azathioprine, cyclophosphamide and methylprednisolone. Arthritis Rheum, 1972. 15(3): p. 247-52; and Ramos, M. A., et al., Modulation of autoantibody production by mycophenolate mofetil: effects on the development of SLE in (NZB×NZW)F1 mice. Nephrol Dial Transplant, 2003. 18(5): p. 878-83)
(NZB×NZW)F1 females were purchased from The Jackson Laboratory (Bar Harbor, Me., USA) and maintained in a conventional animal housing facility throughout the experiment. […] Proteinuria (PU) and survival were monitored weekly, followed by biweekly measurement of lymphocyte and platelet counts, and anti-ds DNA production. PK parameters were also measured throughout the study. Impact on IgG deposition and renal pathology were assessed at the conclusion of the study. Severe PU was defined by two consecutive weekly measurements of PU 300 mg/dl using Albustix test strips (VWR). When mice became moribund, they were sacrificed according to Institutional Animal Care and Use Committee protocols. PU and survival data were presented as Kaplan-Meyer survival curves using Graphpad Prism software and group differences were considered significant at the level of p<0.05. Histologic scores were analyzed using ANOVA analysis. Anti-ds DNA were analyzed using one-way ANOVA analysis and Tukey post-test.

[4] = (NZB×NZW)F1 mice, four days, orally every day
[5] = 30 and 100 mg/kg intraperitoneal every day, four days
[6] = 24 h, 1 oral dose of 100 mg/kg, read-out: Day 1 % Reduction vs. Vehicle
[7] = 96 h, 4 oral doses of 100 mg/kg, read-out: Day 4 % Reduction vs. Vehicle

Sequence of Mcl-1 (Q07820 whole entry): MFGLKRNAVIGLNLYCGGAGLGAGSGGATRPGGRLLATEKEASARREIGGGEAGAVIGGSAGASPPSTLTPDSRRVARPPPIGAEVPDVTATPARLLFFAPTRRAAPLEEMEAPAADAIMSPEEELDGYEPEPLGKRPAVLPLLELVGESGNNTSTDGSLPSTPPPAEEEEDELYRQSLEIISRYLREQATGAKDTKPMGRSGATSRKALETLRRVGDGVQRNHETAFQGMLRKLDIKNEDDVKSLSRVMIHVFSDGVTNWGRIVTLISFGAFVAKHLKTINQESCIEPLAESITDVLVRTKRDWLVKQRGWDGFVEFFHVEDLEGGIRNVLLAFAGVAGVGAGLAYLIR
Sequence of Bcl-XL (Q07817 whole entry): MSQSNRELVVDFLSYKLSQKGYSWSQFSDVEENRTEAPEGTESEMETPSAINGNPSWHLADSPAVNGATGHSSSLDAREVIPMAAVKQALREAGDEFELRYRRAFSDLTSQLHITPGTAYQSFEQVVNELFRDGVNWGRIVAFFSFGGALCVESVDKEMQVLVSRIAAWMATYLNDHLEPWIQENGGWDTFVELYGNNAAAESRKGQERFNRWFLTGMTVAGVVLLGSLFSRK
Sequence of Bcl-2 (P10415 whole entry): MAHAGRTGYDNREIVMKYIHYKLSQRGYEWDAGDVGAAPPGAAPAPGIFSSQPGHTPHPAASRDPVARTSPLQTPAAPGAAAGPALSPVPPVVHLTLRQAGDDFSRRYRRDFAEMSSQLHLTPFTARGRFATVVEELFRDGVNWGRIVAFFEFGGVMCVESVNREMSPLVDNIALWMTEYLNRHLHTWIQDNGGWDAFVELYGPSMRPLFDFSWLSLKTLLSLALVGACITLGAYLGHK

Structure (SMILES) | Ki (Bcl-w) [nM] | EC50 (H146 cells) [nM] | EC50 (RS4;11 cells) [nM] | EC50 (FL5.12-Bcl-XL cells) [nM] | EC50 (FL5.12-Bcl-2 cells) [nM] | Ki (Mcl-1) [nM] | Ki (Bcl-XL) [nM] | Ki (Bcl-2) [nM] | Day 1 Lymphocytes ([2]; 1 oral dose of 100 mg/kg) | Day 4 lymphocytes ([2]; 4 oral doses of 100 mg/kg) | inhibition in vivo at 100 mg/kg [2, 6] [%] | inhibition in vivo at 100 mg/kg [2, 7] [%] | also measured
CC1(C)CCC(c2ccc(Cl)cc2)=C(CN2CCN(c3ccc(C(=O)NS(=O)(=O)c4ccc(N[C@H](CCN5CCOCC5)CSc5ccccc5)c(S(=O)(=O)C(F)(F)F)c4)cc3)CC2)C1 [Compound 2, N-(4-(4-((2-(4-chlorophenyl)-5,5-dimethyl-1-cyclohex-1-en-1-yl)methyl)piperazin-1-yl)benzoyl)-4-(((1R)-3-(morpholin-4-yl)-1-((phenylsulfanyl)methyl)propyl)amino)-3-((trifluoromethyl)sulfonyl)benzenesulfonamide, reference compound] | 7 | 75 | 110 | 13 | 20 | – | – | – | – | – | – | – | lymphocytes in peripheral blood [1, 4]: decrease in lymphocytes; platelet counts [1, 4]: significant decrease in platelet counts
CC1(C)CCC(CN2CCN(c3ccc(C(=O)NS(=O)(=O)c4ccc(NCC5CCOCC5)c([N+](=O)[O-])c4)c(Oc4ccc5[nH]ccc5c4)c3)CC2)=C(c2ccc(Cl)cc2)C1 [Compound 3, 4-(4-{[2-(4-chlorophenyl)-4,4-dimethylcyclohex-1-en-1-yl]methyl}piperazin-1-yl)-2-(1H-indol-5-yloxy)-N-({3-nitro-4-[(tetrahydro-2H-pyran-4-ylmethyl)amino]phenyl}sulfonyl)benzamide] | – | > 5000 | 41 | 1060 | 12 | 111 | 151 | 0.119 | 2.3 ×10^6 | 1.34 ×10^6 | 63 | 79 | lymphocyte reduction ([1]; 30 mg/kg intraperitoneal every day, four days): 47%; CD4+ T cells, CD8+ T cells and CD19+ B cells ([1]; 100 mg/kg and 300 mg/kg): statistically significant decrease; lymphocyte reduction ([1]; 100 mg/kg intraperitoneal every day, four days): 66%; lymphocytes vs phosal vehicle control [1, 5]: dose dependent decrease in lymphocytes; platelet counts [1, 5]: without significantly affecting platelet counts
CC1(C)CCC(CN2CCN(c3ccc(C(=O)NS(=O)(=O)c4cnc(OC[C@H]5CC[C@H](O)CC5)c(Cl)c4)c(Oc4cccc5[nH]ncc45)c3)CC2)=C(c2ccc(Cl)cc2)C1 [Compound 6, Trans-N-({5-chloro-6-[(4-hydroxycyclohexyl)methoxy]pyridin-3-yl}sulfonyl)-4-(4-{[2-(4-chlorophenyl)-4,4-dimethylcyclohex-1-en-1-yl]methyl}piperazin-1-yl)-2-(1H-indazol-4-yloxy)benzamide] | – | 3660 | 23 | – | – | > 224 | 27 | < 0.01 | 1.91 ×10^6 | 0.98 ×10^6 | 69 | 85 | –
CC1(C)CCC(CN2CCN(c3ccc(C(=O)NS(=O)(=O)c4ccc(N[C@H]5CC[C@H](N6CCOCC6)CC5)c([N+](=O)[O-])c4)c(Oc4cnc(N)c(Cl)c4)c3)CC2)=C(c2ccc(Cl)cc2)C1 [Compound 17, Trans-2-[(6-amino-5-chloropyridin-3-yl)oxy]-4-(4-{[2-(4-chlorophenyl)-4,4-dimethylcyclohex-1-en-1-yl]methyl}piperazin-1-yl)-N-({4-[(4-morpholin-4-ylcyclohexyl)amino]-3-nitrophenyl}sulfonyl)benzamide] | 357 | 3240 | 17 | 65 | 4 | > 440 | 12 | < 0.01 | 1.84 ×10^6 | 1.30 ×10^6 | 77 | 83 | % Mice with PU < 300 mg/dL ([3]; Week 39, 1 mg/kg daily oral): 58%; % Survival ([3]; Week 39, 1 mg/kg daily oral): 67%; % Mice with PU < 300 mg/dL ([3]; Week 39, 3 mg/kg daily oral): 67%; % Survival ([3]; Week 39, 3 mg/kg daily oral): 92%; % Mice with PU < 300 mg/dL ([3]; Week 39, 10 mg/kg daily oral): 71%; % Survival ([3]; Week 39, 10 mg/kg daily oral): 93%; % Mice with PU < 300 mg/dL ([3]; Week 39, 30 mg/kg daily oral): 86%; % Survival ([3]; Week 39, 30 mg/kg daily oral): 100%; % Mice with PU < 300 mg/dL ([3]; Week 39, 100 mg/kg daily oral): 100* %; % Survival ([3]; Week 39, 100 mg/kg daily oral): 100%

The remaining compounds from weak to strong by EC50 (H146 cells), led by results:

Ki (Bcl-w) [nM] | EC50 (H146 cells) [nM] | EC50 (RS4;11 cells) [nM] | EC50 (FL5.12-Bcl-XL cells) [nM] | EC50 (FL5.12-Bcl-2 cells) [nM] | Ki (Mcl-1) [nM] | Ki (Bcl-XL) [nM] | Ki (Bcl-2) [nM] | Structure (SMILES) | Day 1 Lymphocytes ([2]; 1 oral dose of 100 mg/kg) | Day 4 lymphocytes ([2]; 4 oral doses of 100 mg/kg) | inhibition in vivo at 100 mg/kg [2, 6] [%] | inhibition in vivo at 100 mg/kg [2, 7] [%] | also measured
227 | 3760 | 2.5 | – | – | > 440 | 16 | – | CC1(C)CCC(CN2CCN(c3ccc(C(=O)NS(=O)(=O)c4ccc(NC[C@H]5CC[C@](C)(O)CC5)c([N+](=O)[O-])c4)c(Oc4cnc5[nH]ccc5c4)c3)CC2)=C(c2ccc(Cl)cc2)C1 [Compound 9, 4-(4-{[2-(4-chlorophenyl)-4,4-dimethylcyclohex-1-en-1-yl]methyl}piperazin-1-yl)-N-[(4-{[(trans-4-hydroxy-4-methylcyclohexyl)methyl]amino}-3-nitrophenyl)sulfonyl]-2-(1H-pyrrolo[2,3-b]pyridin-5-yloxy)benzamide] | 0.75 ×10^6 | 0.88 ×10^6 | 88 | 86 | –
405 | 3340 | 4 | – | – | > 440 | 16 | – | CC1(C)CCC(CN2CCN(c3ccc(C(=O)NS(=O)(=O)c4ccc(NC[C@H]5CC[C@@](C)(O)CC5)c([N+](=O)[O-])c4)c(Oc4cnc5[nH]ccc5c4)c3)CC2)=C(c2ccc(Cl)cc2)C1 [Compound 8, 4-(4-{[2-(4-chlorophenyl)-4,4-dimethylcyclohex-1-en-1-yl]methyl}piperazin-1-yl)-N-[(4-{[(cis-4-hydroxy-4-methylcyclohexyl)methyl]amino}-3-nitrophenyl)sulfonyl]-2-(1H-pyrrolo[2,3-b]pyridin-5-yloxy)benzamide] | 0.92 ×10^6 | 1.02 ×10^6 | 85 | 84 | –
167 | 3160 | 7 | – | – | > 440 | 9 | – | CC1(C)CCC(CN2CCN(c3ccc(C(=O)NS(=O)(=O)c4cnc(OCC5(F)CCN(C6COC6)CC5)c(Cl)c4)c(Oc4cnc5[nH]ccc5c4)c3)CC2)=C(c2ccc(Cl)cc2)C1 [Compound 13, N-[(5-chloro-6-{[4-fluoro-1-(oxetan-3-yl)piperidin-4-yl]methoxy}pyridin-3-yl)sulfonyl]-4-(4-{[2-(4-chlorophenyl)-4,4-dimethylcyclohex-1-en-1-yl]methyl}piperazin-1-yl)-2-(1H-pyrrolo[2,3-b]pyridin-5-yloxy)benzamide] | 2.32 ×10^6 | 2.61 ×10^6 | 64 | 70 | –
